Results as given in the supplement of paper PMC10307832.

Key:
Test in all cases: relative viability (nuclei count vs DMSO), 5 days (fraction); higher = more cells survive
[1] = compound: C1=CC=C2C(=C1)N=C(S2)C(C#N)C3=NC(=NC=C3)NCCC4=CN=CC=C4 + CCNC(=O)c1noc(-c2cc(C(C)C)c(O)cc2O)c1-c1ccc(CN2CCOCC2)cc1 [Luminespib] (partner 0.01 µM)
In short: (§1)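 Lung cancer cell lines, seeded in 1536-well plates, were treated the following day by pin tool with a single drug or with five library-drug doses (not always all listed) in √10 steps on top of a fixed anchor-drug dose. Cells were fixed and nuclei stained in one step after 5 days, and nuclei were counted. Relative viability is the nuclei count for treated wells divided by that for vehicle wells, reported as medians of duplicate plates.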

[2] = compound: C1=CC=C2C(=C1)N=C(S2)C(C#N)C3=NC(=NC=C3)NCCC4=CN=CC=C4 + C[C@]1(O)C[C@@H](c2nc(-c3ccc4ccc(-c5ccccc5)nc4c3)c3c(N)nccn32)C1 [Linsitinib] (partner 1 µM)
In short: as §1

[3] = compound: COc1cc(N2CCC(N3CCN(C)CC3)CC2)ccc1Nc1ncc(Cl)c(Nc2ccccc2S(=O)(=O)C(C)C)n1 [NVP-TAE684] + CS(=O)(=O)CCNCc1ccc(-c2ccc3ncnc(Nc4ccc(OCc5cccc(F)c5)c(Cl)c4)c3c2)o1 [Lapatinib] (partner 2 µM)
In short: as §1

[4] = compound: COc1cc2/c(=N/c3ccc(Br)cc3F)nc[nH]c2cc1OCC1CCN(C)CC1 [Vandetanib] + N=C(N)NC(=N)NCCc1ccccc1 [Phenformin] (partner 250 µM)
In short: as §1

Row | Cell Line | relative viability ([1]; first compound 0.01581 µM) | relative viability ([1]; first compound 0.05 µM) | relative viability ([1]; first compound 0.1581 µM) | relative viability ([1]; first compound 0.5 µM) | relative viability ([2]; first compound 0.005 µM) | relative viability ([2]; first compound 0.01581 µM) | relative viability ([2]; first compound 0.05 µM) | relative viability ([2]; first compound 0.1581 µM) | relative viability ([2]; first compound 0.5 µM) | relative viability ([3]; first compound 0.2 µM) | relative viability ([3]; first compound 0.6325 µM) | relative viability ([3]; first compound 2 µM) | relative viability ([4]; first compound 0.02 µM) | relative viability ([4]; first compound 0.06325 µM) | relative viability ([4]; first compound 0.2 µM) | relative viability ([4]; first compound 0.6325 µM) | relative viability ([4]; first compound 2 µM) | relative viability ([1]; first compound 0.005 µM)
1 | NCI-H727 | 0.241 | 0.294 | 0.105 | 0.329 | 0.328 | 0.321 | 0.228 | 0.396 | 0.298 | 0.917 | 0.695 | 0.346 | 0.565 | 0.468 | 0.712 | 0.283 | 0.448 | 
2 | NCI-H838 | 0.368 | 0.252 | 0.367 | 0.273 | 0.713 | 1.08 | 0.957 | 1.03 | 0.874 | 1.12 | 0.758 | 0.287 | 0.533 | 0.579 | 0.617 | 0.542 | 0.646 | 0.327
3 | NCI-H1944 | 0.854 | 0.558 | 0.636 | 0.759 | 1.09 | 1.25 | 1.2 | 1.34 | 1.2 |  | 0.798 | 0.607 | 0.205 | 0.195 | 0.209 | 0.168 | 0.188 | 0.739
4 | SK-LU-1 | 0.194 | 0.187 | 0.223 | 0.197 |  | 1.08 | 1.01 | 1.47 | 1.07 | 0.98 | 0.873 | 0.486 | 0.518 | 0.405 | 0.464 | 0.491 | 0.558 | 0.185
5 | LC-2-ad | 1.06 | 0.965 | 1.17 | 0.91 | 0.886 | 0.85 | 0.844 | 0.878 | 0.82 | 0.988 | 0.921 | 0.455 | 0.615 | 0.512 | 0.548 | 0.475 | 0.305 | 0.807
6 | LOU-NH91 | 0.34 | 0.336 | 0.333 | 0.43 | 0.919 | 0.931 | 0.834 | 0.973 | 0.935 | 0.781 | 0.648 | 0.516 | 0.709 | 0.619 | 0.537 | 0.509 | 0.51 | 0.274
7 | NCI-H2009 | 1.09 | 1.05 | 1.07 | 1.05 | 1.15 | 1.22 | 1.22 | 1.25 | 1.07 | 0.938 | 0.888 | 0.731 | 0.495 | 0.462 | 0.416 | 0.443 | 0.361 | 1.1
8 | NCI-H647 | 0.262 | 0.169 | 0.235 | 0.286 |  | 1.17 | 1.16 | 1.25 | 0.976 | 1.34 | 1.02 | 0.686 | 0.524 | 0.51 | 0.412 | 0.513 | 0.501 | 0.208
9 | NCI-H1666 | 0.965 | 0.986 | 1.1 | 0.833 | 0.81 | 0.846 | 0.722 | 0.91 | 0.766 | 0.588 | 0.447 | 0.283 | 0.541 | 0.559 | 0.585 | 0.586 | 0.562 | 0.856
10 | A-427 | 1 | 0.861 | 1.18 | 0.965 | 1.05 | 1.12 | 1.11 | 1.17 | 1.13 | 1.12 |  | 0.922 | 0.297 | 0.303 | 0.274 | 0.253 | 0.22 | 0.784
11 | NCI-H2170 | 0.803 | 0.621 | 1.01 | 0.894 |  |  |  |  |  | 0.253 | 0.244 | 0.247 | 0.342 | 0.402 | 0.415 | 0.409 | 0.357 | 0.702
12 | EBC-1 |  |  |  |  | 1.04 | 0.871 | 0.502 | 1.01 | 0.812 | 0.221 | 0.223 | 0.192 |  |  |  |  |  | 
13 | HCC-366 |  |  |  |  | 0.56 | 0.709 | 0.693 | 0.834 | 0.558 | 1.58 | 0.932 | 0.963 | 0.596 | 0.603 | 0.62 | 0.586 | 0.505 | 
14 | NCI-H2342 | 0.708 | 0.794 | 0.776 | 0.841 |  |  |  |  |  |  |  |  | 0.596 | 0.496 | 0.592 | 0.576 | 0.477 | 0.555
15 | SW 900 | 0.205 | 0.175 | 0.197 | 0.179 |  |  |  |  |  |  |  |  | 0.635 | 0.657 | 0.197 | 0.474 | 0.434 | 0.164
16 | HCC-78 |  |  |  |  | 0.492 | 0.423 | 0.33 | 0.582 | 0.549 | 1.26 | 1.3 | 0.255 | 0.744 | 0.638 | 0.662 | 0.664 | 0.627 | 
17 | IA-LM |  |  |  |  |  | 0.544 | 0.32 | 0.607 | 0.637 | 0.698 | 0.66 | 0.427 |  |  |  |  |  | 
18 | NCI-H522 | 1.05 | 1.12 | 1.15 | 1.12 |  |  |  |  |  |  |  |  | 0.691 | 0.623 | 0.66 | 0.585 | 0.712 | 1.07
19 | NCI-H1299 |  |  |  |  | 0.92 | 0.99 | 0.744 | 1.07 | 0.912 | 1.03 | 0.964 | 0.836 |  |  |  |  |  | 
20 | NCI-H441 | 0.308 | 0.351 | 0.365 | 0.301 |  | 0.499 | 0.533 | 0.617 | 0.447 |  |  |  | 0.849 | 0.783 | 0.898 | 0.916 | 0.717 | 
21 | NCI-H1623 | 0.466 | 0.508 | 0.322 | 0.346 |  |  |  |  |  |  |  |  | 0.574 | 0.525 | 0.574 | 0.526 | 0.622 | 0.932
22 | LCLC-103H | 0.854 | 0.905 | 0.944 | 0.96 | 1.03 | 1.08 | 1.14 | 1.09 | 1.06 |  |  |  | 0.316 | 0.319 | 0.357 | 0.344 | 0.31 | 0.773
23 | A549 |  |  |  |  | 0.476 | 0.684 | 0.549 | 0.661 | 0.595 | 1.21 |  | 0.192 | 0.195 | 0.133 | 0.121 | 0.142 | 0.0686 | 
24 | Calu-6 |  |  |  |  | 0.884 | 0.982 | 0.89 | 1.07 | 0.914 | 1.31 | 0.94 |  |  |  |  |  |  | 
